The values that follow come from patent US5185363A, “Urea based lipoxygenase inhibiting compounds” (Abbott Laboratories, priority 1991, dated 1993).

pIC50: −log10 of the molar value.

One experiment concerns the target T1, 5-Lipoxygenase from RBL-1 20,000 xg Supernatant (Rattus norvegicus, UniProt P12527).
T1 construct: supermatant from 1.5 million homogenized RBL-1 cells; endogenous in cells; host or cells: RBL-1 cells, 20,000 x g supernatant of homogenate
T1 sequence (P12527 1-673): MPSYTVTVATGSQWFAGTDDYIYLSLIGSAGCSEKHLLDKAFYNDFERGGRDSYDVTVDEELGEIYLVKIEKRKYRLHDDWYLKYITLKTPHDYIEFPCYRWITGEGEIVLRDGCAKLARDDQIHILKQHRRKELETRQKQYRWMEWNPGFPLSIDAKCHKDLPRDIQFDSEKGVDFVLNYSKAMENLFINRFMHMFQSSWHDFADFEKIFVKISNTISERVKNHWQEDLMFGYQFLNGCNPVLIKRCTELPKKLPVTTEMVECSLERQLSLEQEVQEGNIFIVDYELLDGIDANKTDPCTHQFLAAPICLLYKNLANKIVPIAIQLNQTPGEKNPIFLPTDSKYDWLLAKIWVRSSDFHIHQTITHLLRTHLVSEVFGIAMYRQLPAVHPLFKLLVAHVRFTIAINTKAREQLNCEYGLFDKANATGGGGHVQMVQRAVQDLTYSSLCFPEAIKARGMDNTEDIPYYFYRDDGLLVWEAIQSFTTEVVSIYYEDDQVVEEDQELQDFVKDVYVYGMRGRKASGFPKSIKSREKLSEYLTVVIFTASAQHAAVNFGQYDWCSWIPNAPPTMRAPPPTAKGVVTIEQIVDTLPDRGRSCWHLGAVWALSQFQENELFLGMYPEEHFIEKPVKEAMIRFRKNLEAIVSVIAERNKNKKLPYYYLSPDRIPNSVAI
The experiment can be described thus: In vitro inhibition of 5-lipoxygenase from RBL-1 20,000 xg supernatant. The settings on record: radiolabeled arachidonic acid. Type of experiment: biochemical. How it is done: Assays to determine 5-lipoxygenase inhibitory activity were performed in […] incubations containing the 20,000xg supermatant from 1.5 million homogenized RBL-1 cells and various concentrations of the test compound. Reactions were initiated by addition of radiolabeled arachidonic acid and terminated by acidification and ether extraction. Reaction products were separated from nonconverted substrate by thin layer chromatography and measured by liquid scintillation spectroscopy. All incubations are performed in triplicate. Inhibition of 5-lipoxygenase activity was calculated as the ratio of the amount of product formed in the presence and absence of inhibitor. […] (Dyer, R.D.; Haviv, F.; Hanel, A. M.; Bornemier, D. A.; Carter, G. W. Fed. Proc., Fed. Am. Soc. Exp. Biol. 1984, 43, 1462A).
A word on the pIC50: it is −log10 of the IC50, conventionally taken in molar units. Higher therefore signals a small IC50. The compound `CC(c1ccc(OCc2ccccc2)cc1)N(O)C(N)=O` (stereo not drawn) [Example 1, N-hydroxy-N-(1(4-phenylmethoxyphenyl)ethyl)urea] had a pIC50 of 6.37.

Take `CC(c1ccc(OCc2ccccc2)cc1)N(O)C(=O)NO` (stereo not drawn) [Example 4]: the negative-log IC50 (pIC50) was 6.30. Compound `NC(=O)N(O)Cc1ccc(OCc2ccccc2)cc1` [Example 5, N-hydroxy-N-(4-phenylmethoxyphenylmethyl) urea] showed a pIC50 of 6.21. On to `COc1cc(C(C)N(O)C(N)=O)cc(OC)c1OCc1ccccc1` (stereo not drawn) [Example 7, N-hydroxy-N-(1-(4-phenylmethoxy-3,5-dimethoxyphenyl)ethyl) urea], for which the pIC50 was 5.85. Against the preceding compound, the pIC50 is 0.36 log units lower. `Cc1ccc(C(C)N(O)C(N)=O)s1` (stereo not drawn) [Example 12, N-Hydroxy-N-1-(5-methylthien-2-yl)ethyl urea] showed a pIC50 of 6.28. This pIC50 lies 0.43 log units higher than the previous one. `Cc1cc(C(C)N(O)C(N)=O)c(C)s1` (stereo not drawn) [Example 42, N-Hydroxy-N-1-(2,5-dimethylthien-3-yl)ethyl urea] gave a negative-log IC50 (pIC50) of 5.82.

The compound `CC(c1ccsc1)N(O)C(N)=O` (stereo not drawn) [Example 43, N-Hydroxy-N-1-(thien-3-yl)ethyl urea] showed a pIC50 of 5.46. Turning to `NC(=O)N(O)Cc1ccsc1` [Example 44, N-Hydroxy-N-(thien-3-yl)methyl urea], the pIC50 was 5.31. The pIC50 values of the last two compounds are within 0.2 log units of each other. Still for that read-out and setting: in the case of `NC(=O)N(O)Cc1cccs1` [Example 45, N-hydroxy-N-(thien-2-yl)methyl urea] it was 5.17; in that of `CC(c1cccs1)N(O)C(N)=O` (stereo not drawn) [Example 47, N-hydroxy-N-(1-thien-2-yl)ethyl urea], 5.43; in that of `CNC(=O)N(O)Cc1cccs1` [Example 50, N-hydroxy-N-(thien-2-yl)methyl-N'-methyl urea], 5.17. On the same count and under the same terms, in the case of `Cc1ccc(CN(O)C(N)=O)s1` [Example 51, N-hydroxy-N-(5-methylthien-2-yl)methyl urea] it was 6.70; in that of `NC(=O)N(O)Cc1ccc(-c2ccccn2)s1` [Example 55, N-hydroxy-N-(1-(5-(pyrid-2-yl)thien-2-yl)methyl) urea], 5.68.

Turning to `CC(c1ccc(-c2ccccc2)s1)N(O)C(N)=O` (stereo not drawn) [Example 56, N-hydroxy-N-(1-(5-phenylthien-2-yl)ethyl)urea], the pIC50 was 6.40. This pIC50 is 0.72 log units higher than that of the compound before. `NC(=O)N(O)CC=Cc1ccsc1` [Example 68, N-hydroxy-N-(3-(1-thien-3-yl)propenyl) urea] showed a pIC50 of 5.72. `CC(c1ccc(Br)cc1)N(O)C(N)=O` (stereo not drawn) [Example 97, N-Hydroxy-N-1-(4-bromophenyl)ethylurea] had a pIC50 of 6.70.

In turn, `CC(c1ccc(Br)cc1)N(O)C(=O)NCCO` (stereo not drawn) [Example 99, N-Hydroxy-N-1-(4-bromophenyl)ethyl-N'-(2-hydroxyethyl)-urea] gave a pIC50 of 6.52. In the case of `NC(=O)N(O)Cc1ccc(Br)cc1` [Example 100, N-Hydroxy-N-4-bromobenzylurea], the pIC50 was 6.10. Turning to `CNC(=O)N(O)Cc1ccc(Br)cc1` [Example 101, N-Hydroxy-N-4-bromobenzyl-N'-methyl urea], the pIC50 was 6.52. Against the preceding compound, the pIC50 is 0.42 log units higher. In turn, `CC(c1ccc(Cl)cc1)N(O)C(N)=O` (stereo not drawn) [Example 107, N-Hydroxy-N-(1-(4-chlorophenyl)ethyl) urea] had a pIC50 of 6.22. Still for that read-out and setting: with `CC(c1ccc(F)cc1)N(O)C(N)=O` (stereo not drawn) [Example 109, N-Hydroxy-N-(1-(4-fluorophenyl)ethyl) urea] the figure was 5.74; with `Cc1ccc(C(C)N(O)C(N)=O)cc1` (stereo not drawn) [Example 113, N-Hydroxy-N-(1-(4-methylphenyl)ethyl) urea], 6.52.

The subject of the next experiment is 5-lipoxygenase.
Assay: not given
The settings on record: cited from earlier work.
Regarding `O=C(O)c1cc(/N=N/c2ccc(S(=O)(=O)Nc3ccccn3)cc2)ccc1O` [sulfasalazine], the 5-lipoxygenase inhibition result was “weak 5-lipoxygenase inhibitor”.

For another experiment, the system named is leukotriene biosynthesis. The experiment can be described thus: In vivo inhibition of leukotriene biosynthesis, rat peritoneal anaphylaxis model. The settings on record: 1 h, 200 μmol/kg oral dose, gavage one hour prior to antigen challenge, read-out: Percent Inhibition. How it is done: Inhibition of the biosynthesis of leukotrienes in vivo after oral administration of compound was determined using a rat peritoneal anaphylaxis model in a similar manner as that described by Young and coworkers (Young, P. R.; Dyer, R. D.; Carter, G. W. Fed. Proc., Fed. Am. Soc. Exp. Biol. 1985, 44, 1185). In this model rats were injected intraperitoneally (ip) with rabbit antibody to bovine serum albumin (BSA) and three hours later injected ip with BSA to induce an antgen-antibody response. Rats were sacrificed 15 minutes after this challenge and the peritoneal fluids were collected and analyzed for leukotriene levels. Test compounds were administered by gavage one hour prior to the antigen challenge. Percent inhibition values were determined by comparing the treatment group to the mean of the control group.
With `CC(c1ccc(OCc2ccccc2)cc1)N(O)C(N)=O` (stereo not drawn) [Example 1, N-hydroxy-N-(1(4-phenylmethoxyphenyl)ethyl)urea], the inhibition in vivo at 200 µmol/kg came to 58%. Take `CC(c1ccc(OCc2ccccc2)cc1)N(O)C(=O)NO` (stereo not drawn) [Example 4]: the inhibition in vivo at 200 µmol/kg came out at 63%.

`NC(=O)N(O)Cc1ccc(OCc2ccccc2)cc1` [Example 5, N-hydroxy-N-(4-phenylmethoxyphenylmethyl) urea]: the inhibition in vivo at 200 µmol/kg came to 74%. Same read-out and setting: in the case of `COc1cc(C(C)N(O)C(N)=O)cc(OC)c1OCc1ccccc1` (stereo not drawn) [Example 7, N-hydroxy-N-(1-(4-phenylmethoxy-3,5-dimethoxyphenyl)ethyl) urea] it was 88%; in that of `Cc1ccc(C(C)N(O)C(N)=O)s1` (stereo not drawn) [Example 12, N-Hydroxy-N-1-(5-methylthien-2-yl)ethyl urea], 94%. As to `Cc1cc(C(C)N(O)C(N)=O)c(C)s1` (stereo not drawn) [Example 42, N-Hydroxy-N-1-(2,5-dimethylthien-3-yl)ethyl urea], the inhibition in vivo at 200 µmol/kg was 64%. Consider `CC(c1ccsc1)N(O)C(N)=O` (stereo not drawn) [Example 43, N-Hydroxy-N-1-(thien-3-yl)ethyl urea], for which the inhibition in vivo at 200 µmol/kg stood at 66%.

For `NC(=O)N(O)Cc1ccsc1` [Example 44, N-Hydroxy-N-(thien-3-yl)methyl urea], the inhibition in vivo at 200 µmol/kg is 87%. On to `NC(=O)N(O)Cc1cccs1` [Example 45, N-hydroxy-N-(thien-2-yl)methyl urea], for which the inhibition in vivo at 200 µmol/kg is 97%.

As for `CC(c1cccs1)N(O)C(N)=O` (stereo not drawn) [Example 47, N-hydroxy-N-(1-thien-2-yl)ethyl urea], the inhibition in vivo at 200 µmol/kg came out at 94%.

Consider `CNC(=O)N(O)Cc1cccs1` [Example 50, N-hydroxy-N-(thien-2-yl)methyl-N'-methyl urea], for which the inhibition in vivo at 200 µmol/kg was 90%. The same measure, in the same setting: with `Cc1ccc(CN(O)C(N)=O)s1` [Example 51, N-hydroxy-N-(5-methylthien-2-yl)methyl urea] the figure was 94%; with `NC(=O)N(O)Cc1ccc(-c2ccccn2)s1` [Example 55, N-hydroxy-N-(1-(5-(pyrid-2-yl)thien-2-yl)methyl) urea], 71%. As for `CC(c1ccc(-c2ccccc2)s1)N(O)C(N)=O` (stereo not drawn) [Example 56, N-hydroxy-N-(1-(5-phenylthien-2-yl)ethyl)urea], the inhibition in vivo at 200 µmol/kg was 89%. On to `NC(=O)N(O)CC=Cc1ccsc1` [Example 68, N-hydroxy-N-(3-(1-thien-3-yl)propenyl) urea], for which the inhibition in vivo at 200 µmol/kg stood at 93%. `CC(c1ccc(Br)cc1)N(O)C(N)=O` (stereo not drawn) [Example 97, N-Hydroxy-N-1-(4-bromophenyl)ethylurea]: the inhibition in vivo at 200 µmol/kg came to 94%. For `CC(c1ccc(Br)cc1)N(O)C(=O)NCCO` (stereo not drawn) [Example 99, N-Hydroxy-N-1-(4-bromophenyl)ethyl-N'-(2-hydroxyethyl)-urea], the inhibition in vivo at 200 µmol/kg came to 84%. With `NC(=O)N(O)Cc1ccc(Br)cc1` [Example 100, N-Hydroxy-N-4-bromobenzylurea], the inhibition in vivo at 200 µmol/kg worked out at 95%. Regarding `CNC(=O)N(O)Cc1ccc(Br)cc1` [Example 101, N-Hydroxy-N-4-bromobenzyl-N'-methyl urea], the inhibition in vivo at 200 µmol/kg worked out at 93%. For the compound `CC(c1ccc(Cl)cc1)N(O)C(N)=O` (stereo not drawn) [Example 107, N-Hydroxy-N-(1-(4-chlorophenyl)ethyl) urea], the inhibition in vivo at 200 µmol/kg was 99%. Turning to `CC(c1ccc(F)cc1)N(O)C(N)=O` (stereo not drawn) [Example 109, N-Hydroxy-N-(1-(4-fluorophenyl)ethyl) urea], the inhibition in vivo at 200 µmol/kg worked out at 98%. `Cc1ccc(C(C)N(O)C(N)=O)cc1` (stereo not drawn) [Example 113, N-Hydroxy-N-(1-(4-methylphenyl)ethyl) urea]: the inhibition in vivo at 200 µmol/kg turned out to be 94%.
